# In patent US5208344A, “Naphthalenepropionic acid derivatives as anti-inflammatory/antiallergic agents” (American Home Products Corporation, priority 1991, dated 1993):
# pIC50: −log10 of the molar value. Where a name gives a salt, the structure may show the parent alone.
# Biological target: T1, 5-lipoxygenase (Homo sapiens, UniProt P09917)
# T1 construct: Blood is obtained in 50-100 ml quantities from male donors; endogenous in cells; host or cells: human whole blood (leukocytes) from male donors
# T1 sequence (P09917 1-674): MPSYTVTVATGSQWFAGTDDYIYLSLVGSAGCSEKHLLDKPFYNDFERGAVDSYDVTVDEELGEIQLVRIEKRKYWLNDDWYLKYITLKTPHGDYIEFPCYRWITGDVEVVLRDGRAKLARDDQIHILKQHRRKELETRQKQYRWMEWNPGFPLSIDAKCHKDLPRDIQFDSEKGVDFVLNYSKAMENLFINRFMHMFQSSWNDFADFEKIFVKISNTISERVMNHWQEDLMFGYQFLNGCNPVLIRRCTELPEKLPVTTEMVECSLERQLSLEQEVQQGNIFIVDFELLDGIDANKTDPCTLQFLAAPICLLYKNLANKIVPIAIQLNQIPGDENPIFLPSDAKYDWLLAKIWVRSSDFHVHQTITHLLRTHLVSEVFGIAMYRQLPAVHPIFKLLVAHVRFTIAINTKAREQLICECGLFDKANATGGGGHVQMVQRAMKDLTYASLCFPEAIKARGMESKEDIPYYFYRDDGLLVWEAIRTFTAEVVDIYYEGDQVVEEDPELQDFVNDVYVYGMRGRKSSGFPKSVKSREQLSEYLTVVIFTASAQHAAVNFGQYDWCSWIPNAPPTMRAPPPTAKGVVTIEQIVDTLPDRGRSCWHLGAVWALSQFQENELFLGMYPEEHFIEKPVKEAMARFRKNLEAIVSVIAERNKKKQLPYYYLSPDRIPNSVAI
# Test: inhibition of 5-lipoxygenase in human whole blood (LTB4)
# Format: cell-based
# Experimental: The assay of this Example measures the ability of the compounds tested to inhibit 5-lipxygenase in human whole blood.
# Blood is obtained in 50-100 ml quantities from male donors. White blood cell counts and differentials are made. Two ml of blood are placed in a 15 ml polypropylene test tube. Compounds are solubilized in dimethylsulfoxide and diluted 1:10 in 10% bovine serum albumin in phosphate buffered saline, pH 7.4 resulting in a final dimethylsulfoxide concentration of 0.1% in the blood. Then, compounds are added to the blood in a shaking water bath at 37° C. for 10 minutes prior to the addition of 30 μM calcium ionophore (A23187; Sigma). After ionophore administration, whole blood samples are mixed and incubated for 20 minutes at 37° C. in a shaking water bath. Incubation is terminated by placing samples in an ice bath and immediately adding ethylene glycol-bis-(β-aminoethyl ether)-N,N,N',N'-tetraacetic acid (10 mM). Samples are mixed and centrifuged at 1200×g for 15 minutes at 4° C. Preparation of samples for evaluation by RIA or ELISA is carried out by the following protocol. Plasma is removed from sample tubes, placed in 15 ml polypropylene test tubes containing 8 ml methanol, and then vortexed to precipitate protein. Samples are stored at -70° C. overnight. The next day, samples are centrifuged at 200×g for 15 minutes at 4° C. to pellet the precipitate. Samples are dried in a Savant speed vac concentrator, reconstituted to original volume with ice cold RIA or ELISA buffer, and stored at -70° C. until assayed. The assay for eicosanoids (LTB4, TxB2, and PGE2) is performed as described by the manufacturer of the [^3 H]-RIA kit or ELISA kit (LTB4 -Amersham, TxB2 and PGE2 - Caymen Chemical).
# The total eicosanoid level in 2 ml of blood is calculated and reported as ng/10^6 neutrophils. Significance is determined by a one-way analysis of variance with least significant difference (LSD) comparisons to control (p≤0.05) and IC50 's (μM) are determined by regression analysis (Finney, 1978). Drug effects are expressed as percent change form control values.
# Compounds tested in vitro are solubilized in dimethylsulfoxide and diluted 1:10 in 10% bovine serum albumin in phosphate buffer saline resulting in a final dimethylsulfoxide concentration of 0.1% in the blood.
SMILES,"inhibition at 25 µM (25 μM, human whole blood) [%]",also measured
"CC(C)c1ccc2c(c1)c(SC(C)(C)C)c(CC(C)(C)C(=O)O)n2Cc1ccc(Cl)cc1 [L-663,536, reference compound]",–,"inhibition at 3 µM (3 μM, human whole blood): 96%"
"CC(c1cc2ccccc2s1)N(O)C(N)=O (stereo not drawn) [Example A-64077, reference compound]",–,inhibition at 5 µM (read-out: % Inhibition of LTB4): 72%
"CC(C)(NC(=O)NO)c1ccc2cc(OCc3nc4ccccc4s3)ccc2c1 [Example 37, N-[1-[6-(2-Benzothiazolylmethoxy)-2-naphthalenyl]-1-methyethyl]-N'-hydroxyurea]",43,pIC50 (human whole blood): 4.29
"C[C@H](C(=O)O)c1ccc2cc(OCc3nc4ccccc4o3)ccc2c1 [Example 46, S-(+)-α-methyl-6-(2-benzoxazolylmethoxy)-2-naphthaleneacetic acid]",22,–
"C[C@H](C(=O)O)c1ccc2cc(OCc3ccccn3)ccc2c1 [Example 42, S-(+)-α-Methyl-6-(2-pyridinylmethoxy)-2-naphthaleneacetic acid one tenth hydrate]",11,–
"CC(C)(C(=O)O)c1ccc2cc(OCc3nc4ccccc4s3)ccc2c1 [Example 34, α,α-Dimethyl-6-(2-benzothiazolylmethoxy)-2-naphthaleneacetic acid]",13,–
"C[C@H](C(=O)O)c1ccc2cc(OCc3nc4ccccc4n3C)ccc2c1 [Example 43, S-(α)α-Methyl-6-[(1-methyl-1H-benzimidazol-2-yl)-methoxy]-2-naphthaleneacetic acid]",12,–
"C[C@H](C(=O)N(C)O)c1ccc2cc(OCc3nc4ccccc4s3)ccc2c1 [Example 41A, S-(+)-N-Hydroxy-α,N-dimethyl-6-(2-benzothiazolylmethoxy)-2-naphthaleneacetamide sodium salt hydrate]",–,"% Inhibition of LTB4 (25 μM, human whole blood, sodium salt hydrate): 89%; pIC50 (human whole blood, sodium salt hydrate): 4.91"
"C[C@H](C(=O)O)c1ccc2cc(OCc3csc(-c4ccccc4)n3)ccc2c1 [Example 35, S-(+)-α-Methyl-6-[(2-phenyl-4-thiazolyl)-methoxy]-2-naphthaleneaceticacid]",28,–
"C[C@H](C(=O)O)c1ccc2cc(OCc3nc4ccccc4s3)ccc2c1 [Example 33, S-(+)-α-Methyl-6-(2-benzothiazolylmethoxy)-2-naphthaleneacetic acid]",54,–
